Source: the NIST ThermoML archive (doi:10.1016/j.jct.2004.12.008)
Numbers after ± are expanded uncertainties.

Columns and labels:
[1] = 101 kPa, Liquid
[2] = refractive index (Na D-line) (dimensionless); settings: 293.15 K; 101.33 kPa; Liquid; Standard Abbe refractometry
[3] = xn = mol fraction of the nth substance listed; settings: 101 kPa, Liquid

Compound	mass density ([1]; 293.15 K)	mass density ([1]; 303.15 K)	mass density ([1]; 313.15 K)	mass density ([1]; 323.15 K)	mass density ([1]; 333.15 K)	mass density ([1]; 343.15 K)	refractive index [2]	mass density ([1]; 353.15 K)	mass density ([3]; 293.15 K, x1 = 1)	mass density ([3]; 303.15 K, x1 = 1)	mass density ([3]; 313.15 K, x1 = 1)	mass density ([3]; 323.15 K, x1 = 1)	mass density ([3]; 333.15 K, x1 = 1)	mass density ([3]; 343.15 K, x1 = 1)	also measured
c1ccccc1 [benzene]	877.8 ± 1.6 kg/m3	867.99 ± 1.7 kg/m3	857.87 ± 1.8 kg/m3	847.4 ± 1.9 kg/m3	836.59 ± 2 kg/m3	825.42 ± 2.1 kg/m3	1.5009 ± 0.0007	–	–	–	–	–	–	–	–
O=[N+]([O-])c1ccccc1 [nitrobenzene]	1202.95 ± 2.3 kg/m3	1193.56 ± 2.2 kg/m3	1183.37 ± 2.1 kg/m3	1172.38 ± 2 kg/m3	1160.59 ± 1.9 kg/m3	1148 ± 1.9 kg/m3	1.55488 ± 0.00072	1134.61 ± 1.8 kg/m3	–	–	–	–	–	–	–
C=Cc1ccccc1 [styrene]	906 ± 1.4 kg/m3	896.44 ± 1.5 kg/m3	886.88 ± 1.6 kg/m3	877.32 ± 1.6 kg/m3	867.76 ± 1.7 kg/m3	858.2 ± 1.8 kg/m3	1.546 ± 0.0007	848.64 ± 1.9 kg/m3	–	–	–	–	–	–	–
Cc1ccccc1C [1,2-dimethylbenzene] + O=[N+]([O-])c1ccccc1	–	–	–	–	–	–	–	–	878.6 ± 1.6 kg/m3	872.25 ± 1.7 kg/m3	859.67 ± 1.8 kg/m3	840.84 ± 1.9 kg/m3	–	–	–
Cc1cccc(C)c1 [1,3-dimethylbenzene]	864.2 ± 2.5 kg/m3	855.76 ± 2.6 kg/m3	847.11 ± 2.6 kg/m3	838.27 ± 2.7 kg/m3	829.22 ± 2.7 kg/m3	819.97 ± 2.8 kg/m3	1.49735 ± 0.00082	810.51 ± 2.9 kg/m3	–	–	–	–	–	–	–
CCc1ccccc1 [ethylbenzene]	867.82 ± 14 kg/m3	858.6 ± 14 kg/m3	851.85 ± 15 kg/m3	–	–	–	1.4962 ± 0.0008	–	–	–	–	–	–	–	–
Cc1ccccc1 [toluene] + O=[N+]([O-])c1ccccc1	–	–	–	–	–	–	–	–	866.75 ± 2.5 kg/m3	857.53 ± 2.6 kg/m3	848.25 ± 2.6 kg/m3	838.9 ± 2.7 kg/m3	829.5 ± 2.7 kg/m3	820.03 ± 2.8 kg/m3	mass density ([3]; 353.15 K, x1 = 1): 810.5 ± 2.9 kg/m3
Cc1ccccc1C [1,2-dimethylbenzene]	878.6 ± 1.6 kg/m3	872.25 ± 1.7 kg/m3	859.67 ± 1.8 kg/m3	840.84 ± 1.9 kg/m3	–	–	1.50573 ± 0.00072	–	–	–	–	–	–	–	–
c1ccccc1 [benzene] + O=[N+]([O-])c1ccccc1	–	–	–	–	–	–	–	–	877.8 ± 1.6 kg/m3	867.99 ± 1.7 kg/m3	857.87 ± 1.8 kg/m3	847.4 ± 1.9 kg/m3	836.59 ± 2 kg/m3	825.42 ± 2.1 kg/m3	–
CCc1ccccc1 [ethylbenzene] + O=[N+]([O-])c1ccccc1	–	–	–	–	–	–	–	–	867.82 ± 14 kg/m3	858.6 ± 14 kg/m3	851.85 ± 15 kg/m3	847.58 ± 15 kg/m3	845.79 ± 15 kg/m3	846.48 ± 15 kg/m3	–
Cc1cccc(C)c1 [1,3-dimethylbenzene] + O=[N+]([O-])c1ccccc1	–	–	–	–	–	–	–	–	864.2 ± 2.5 kg/m3	855.76 ± 2.6 kg/m3	847.11 ± 2.6 kg/m3	838.27 ± 2.7 kg/m3	829.22 ± 2.7 kg/m3	819.97 ± 2.8 kg/m3	mass density ([3]; 353.15 K, x1 = 1): 810.51 ± 2.9 kg/m3
O=[N+]([O-])c1ccccc1 [nitrobenzene] + C=Cc1ccccc1	–	–	–	–	–	–	–	–	–	–	–	–	–	–	mass density ([3]; 293.15 K, x2 = 0): 1202.95 ± 2.3 kg/m3; mass density ([3]; 303.15 K, x2 = 0): 1193.56 ± 2.2 kg/m3; mass density ([3]; 313.15 K, x2 = 0): 1183.37 ± 2.1 kg/m3; mass density ([3]; 323.15 K, x2 = 0): 1172.38 ± 2 kg/m3; mass density ([3]; 333.15 K, x2 = 0): 1160.59 ± 1.9 kg/m3; mass density ([3]; 343.15 K, x2 = 0): 1148 ± 1.9 kg/m3; mass density ([3]; 353.15 K, x2 = 0): 1134.61 ± 1.8 kg/m3
Cc1ccccc1 [toluene]	866.75 ± 2.5 kg/m3	857.53 ± 2.6 kg/m3	848.25 ± 2.6 kg/m3	838.9 ± 2.7 kg/m3	829.5 ± 2.7 kg/m3	820.03 ± 2.8 kg/m3	1.4965 ± 0.0008	810.5 ± 2.9 kg/m3	–	–	–	–	–	–	–
Cc1ccc(C)cc1 [1,4-dimethylbenzene]	861 ± 1.9 kg/m3	852.28 ± 2 kg/m3	843.58 ± 2.1 kg/m3	834.92 ± 2.1 kg/m3	826.27 ± 2.2 kg/m3	817.66 ± 2.3 kg/m3	1.49577 ± 0.00075	809.07 ± 2.4 kg/m3	–	–	–	–	–	–	–
Cc1ccc(C)cc1 [1,4-dimethylbenzene] + O=[N+]([O-])c1ccccc1	–	–	–	–	–	–	–	–	861 ± 1.9 kg/m3	852.28 ± 2 kg/m3	843.58 ± 2.1 kg/m3	834.92 ± 2.1 kg/m3	826.27 ± 2.2 kg/m3	817.66 ± 2.3 kg/m3	mass density ([3]; 353.15 K, x1 = 1): 809.07 ± 2.4 kg/m3
